This is an account of results in ChEMBL document CHEMBL1159271, “A reinvestigation of Maprounea triterpenes” (J Nat Prod, 1995).

Active and inactive are the calls of the source. The rule behind the calls is not given here.

Test [1] addresses T1, Human immunodeficiency virus type 1 reverse transcriptase (Human immunodeficiency virus 1, UniProt Q72547). Description: Inhibition of HIV1 recombinant reverse transcriptase by UIC assay.
Test [2] has as its target T1, Human immunodeficiency virus type 1 reverse transcriptase. Description: Inhibition of HIV1 recombinant reverse transcriptase by NCI assay.
The species entered for another test is Rattus norvegicus. Description: Displacement of [3H]phorbol dibutyrate from rat brain membrane. The test is classed as tissue-based. (In general: Displacement assays read how much labelled ligand stays bound in the presence of the test substance.)

By IC50 is commonly meant the concentration that gives 50% inhibition. Turning to `CC1(C)CC[C@]2(C(=O)O)CC=C3[C@]4(C)CC[C@H]5C(C)(C)C[C@H](O)[C@@H](O)[C@]5(C)[C@H]4CC[C@@]3(C)[C@H]2C1`, the IC50 in test [1] is 3.4 µM; in test [2], more than 100 µM.
With `CC1(C)CC[C@]2(C(=O)O)CC=C3[C@]4(C)CC[C@H]5C(C)(C)[C@@H](OC(=O)c6ccc(O)cc6)C[C@@H](O)[C@]5(C)[C@H]4CC[C@@]3(C)[C@H]2C1`, the outcome in the test filed under Rattus norvegicus was Active. Further, the IC50 in test [1] was 3.7 µM; in test [2] it was more than 100 µM.
Turning to `CC1(C)CC[C@]2(C(=O)O)CC=C3[C@]4(C)CC[C@H]5C(C)(C)[C@@H](OC(=O)/C=C/c6ccc(O)cc6)CC[C@]5(C)[C@H]4CC[C@@]3(C)[C@H]2C1`, the values for the IC50 in test [1] and in test [2] were 11.5 µM and 60 µM, respectively.
Taken in the same sequence, the figures for `CC1(C)CC[C@]2(C(=O)O)CC=C3[C@]4(C)CC[C@H]5C(C)(C)[C@H](O)[C@@H](OC(=O)c6ccc(O)cc6)C[C@]5(C)[C@H]4CC[C@@]3(C)[C@H]2C1` were 15 µM and 40 µM.
Take `CC1(C)CC[C@]2(C(=O)O)CC=C3[C@]4(C)CC[C@H]5C(C)(C)[C@@H](OC(=O)c6ccc(O)cc6)[C@H](OC(=O)c6ccc(O)cc6)C[C@]5(C)[C@H]4CC[C@@]3(C)[C@H]2C1`: the IC50 in test [1] turned out to be 7.9 µM; in test [2], 60 µM.
For `CC1(C)CC[C@]2(C(=O)O)CC=C3[C@]4(C)CC[C@H]5C(C)(C)[C@@H](OC(=O)c6ccc(O)cc6)CC[C@]5(C)[C@H]4CC[C@@]3(C)[C@H]2C1`, the IC50 is 10.6 µM in test [1] and 200 µM in test [2].
Turning to `CC1(C)CC[C@]2(C(=O)O)CC=C3[C@]4(C)CC[C@H]5C(C)(C)[C@@H](O)C[C@@H](O)[C@]5(C)[C@H]4CC[C@@]3(C)[C@H]2C1`, the concentration for half-maximal inhibition (IC50) in test [1] turned out to be 4.9 µM.
With `CC1(C)CC[C@]2(C(=O)O)CC=C3[C@]4(C)CC[C@H]5C(C)(C)[C@@H](OC(=O)c6ccc(O)cc6)[C@H](O)C[C@]5(C)[C@H]4CC[C@@]3(C)[C@H]2C1`, the IC50 was 14.4 µM in test [1] and more than 200 µM in test [2].
On to `CC1(C)CC[C@]2(C(=O)O)CC=C3[C@]4(C)CC[C@H]5C(C)(C)[C@@H](O)[C@H](OC(=O)c6ccc(O)cc6)C[C@]5(C)[C@H]4CC[C@@]3(C)[C@H]2C1`, for which the IC50 in test [1] was 52 µM; in test [2] it was more than 200 µM.
